Measured values from publication PMC3510438, “The transmembrane tyrosines Y56, Y91 and Y167 play important roles in determining the affinity and transport rate of the rabbit proton-coupled peptide transporter PepT1” (The International Journal of Biochemistry & Cell Biology, 2009).
Where a chain is given by its changes, count along the chain named. Where a SMILES comes first, the peptide text is derived from it.

Key:
Type in all cases: cell-based, rabbit
Y91F-rPepT1 = molecular target: T1, Y91F-rPepT1 (Oryctolagus cuniculus, UniProt P36836, Y91F); assay: Competition of [3H]-D-Phe-L-Gln uptake into Xenopus oocytes, Ki; conditions: against 0.4 μM [3H]-D-Phe-L-Gln uptake
T1 construct: expressed in transfected cells; host or cells: Xenopus laevis oocytes injected with cRNA
T1 sequence (P36836 1-707 Y91F): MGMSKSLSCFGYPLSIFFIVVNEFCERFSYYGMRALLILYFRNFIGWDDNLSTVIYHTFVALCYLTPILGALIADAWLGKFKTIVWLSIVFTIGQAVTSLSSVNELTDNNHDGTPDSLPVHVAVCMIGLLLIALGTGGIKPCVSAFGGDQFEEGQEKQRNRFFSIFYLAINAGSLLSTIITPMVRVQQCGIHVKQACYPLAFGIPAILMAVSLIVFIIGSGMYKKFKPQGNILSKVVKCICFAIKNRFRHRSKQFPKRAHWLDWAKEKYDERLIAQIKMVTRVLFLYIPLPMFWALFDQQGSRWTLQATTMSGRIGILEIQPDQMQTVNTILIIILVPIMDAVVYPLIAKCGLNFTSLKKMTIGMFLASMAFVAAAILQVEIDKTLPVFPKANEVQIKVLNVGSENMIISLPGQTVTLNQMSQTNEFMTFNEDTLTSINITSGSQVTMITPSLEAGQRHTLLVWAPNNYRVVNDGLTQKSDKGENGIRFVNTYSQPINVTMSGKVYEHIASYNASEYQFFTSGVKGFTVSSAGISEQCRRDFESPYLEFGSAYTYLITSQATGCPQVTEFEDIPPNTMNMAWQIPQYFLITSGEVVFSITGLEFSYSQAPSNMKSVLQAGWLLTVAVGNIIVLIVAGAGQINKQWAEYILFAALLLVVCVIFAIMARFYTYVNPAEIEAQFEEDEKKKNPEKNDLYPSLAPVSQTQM
Experimental: (§1) rPepT1 constructs were linearised with XbaI (New England Biolabs, UK) and cRNA generated by in vitro transcription (T7 mMessage mMachine, Ambion, Cambridgeshire, UK). Xenopus laevis oocytes were obtained under MS222 anaesthesia (0.2%, w/v) in accordance with the UK Animals (Scientific Procedures) Act, 1986, and maintained at 18 °C in modified Barth's medium (88 mM NaCl, 1 mM KCl, 0.82 mM MgSO4, 2.4 mM NaHCO3, 0.42 mM CaCl2, 10 mM Hepes, 5 mM sodium pyruvate, 50 μg ml^−1 gentamicin (Fluka, Poole, UK), adjusted to pH 7.6 with 1 M NaOH). Transport measurements were performed at least 72 h after micro-injection of oocytes with 27nl cRNA (1 μg/μl), with medium changed daily.
(§2) Uptake of [^3H]-D-Phe-L-Gln (17.4 Ci/mmole, custom synthesised, Cambridge Research Biochemicals, Stockton-on-Tees, UK) was performed as previously described ([Meredith, 2004]). Briefly, 5 oocytes were incubated in 100 μl of uptake medium (95 mM NaCl, 2 mM KCl, 1 mM CaCl2, 0.42 mM MgCl2, 10 mM Tris/Hepes pH 7.4 or Tris/Mes pH 5.5) with tracer (0.4 μM) [^3H]-D-Phe-L-Gln. After incubation, the oocytes were washed sequentially five times in 1 ml of ice-cold 120 mM NaCl solution, lysed individually with 100 μl 2% (w/v) SDS and liquid scintillation counted. As a control non-injected oocytes were also incubated in uptake medium with D-Phe-L-Gln as above.
The affinity of wild-type and mutant rPepT1 transporters were assessed by competition studies with 0.4 μM [^3H]-D-Phe-L-Gln and Gly-L-Gln present in the uptake medium in concentrations from 0 to 2 mM using the protocol above, and the Ki calculated using the method of [Deves and Boyd (1989)].

Y167R-rPepT1 = molecular target: T2, Y167R-rPepT1 (Oryctolagus cuniculus, UniProt P36836, Y167R); assay: Uptake of tracer [3H]-D-Phe-L-Gln into Xenopus oocytes; conditions: both pHout 5.5 and 7.4
T2 construct: expressed in transfected cells; host or cells: Xenopus laevis oocytes injected with cRNA
T2 sequence (P36836 1-707 Y167R): T1 sequence (P36836 1-707 Y91F) with F91Y, Y167R
Experimental: as §1, §2

T58Y-rPepT1 = molecular target: T3, T58Y-rPepT1 (Oryctolagus cuniculus, UniProt P36836, T58Y); assay: as above; conditions: both pHout 5.5 and 7.4
T3 construct: expressed in transfected cells; host or cells: Xenopus laevis oocytes injected with cRNA
T3 sequence (P36836 1-707 T58Y): T1 sequence (P36836 1-707 Y91F) with T58Y, F91Y
Experimental: as §1, §2

| Ki (Y91F-rPepT1; pHout 5.5) | Ki (Y91F-rPepT1; pHout 7.4) | reduction of uptake compared to the wild-type (Y167R-rPepT1) | reduction of transport function compared to the wild-type (T58Y-rPepT1) | Compound |
| --- | --- | --- | --- | --- |
| 1400 ± 310 µM | 460 ± 90 µM |  |  | NCC(=O)N[C@@H](CCC(N)=O)C(=O)O [Gly-L-Gln] (H-Gly-Gln-OH) |
|  |  | > 90% | > 70% | [^3H]-D-Phe-L-Gln |
